Experimental data: ChEMBL document CHEMBL3779854, “Biological evaluation and molecular docking studies of new curcuminoid derivatives: Synthesis and characterization” (Bioorg Med Chem Lett, 2016)
Values after ≈ are worked out from the molar mass of the structure shown. Active and inactive are the calls of the source. The calls are words filed in the database; no cut-off is given here.

Experiments:
[1] = Antioxidant activity assessed as DPPH free radical scavenging activity by UV-visible spectrophotometric analysis; format: physicochemical
[2] = Antioxidant activity assessed as H2O2 scavenging activity; format: physicochemical
[3] = Antiinflammatory activity assessed as inhibition of albumin denaturation after 15 mins by BSA assay; format: functional
[4] = system: Escherichia coli; test: Antibacterial activity against Escherichia coli ATCC 25922 at 50 ug after 24 hrs by well diffusion method; format: functional, organism-based
[5] = system: Escherichia coli; test: Antibacterial activity against Escherichia coli ATCC 25922 at 10 ug after 24 hrs by well diffusion method; format: functional, organism-based
[6] = system: Staphylococcus aureus; test: Antibacterial activity against Staphylococcus aureus ATCC 25923 at 50 ug after 24 hrs by well diffusion method; format: functional, organism-based
[7] = system: Klebsiella pneumoniae; test: Antibacterial activity against Klebsiella pneumoniae ATCC 13883 at 50 ug after 24 hrs by well diffusion method; format: functional, organism-based
[8] = system: Staphylococcus aureus; test: Antibacterial activity against Staphylococcus aureus ATCC 25923 at 10 ug after 24 hrs by well diffusion method; format: functional, organism-based
[9] = system: Pseudomonas aeruginosa; test: Antibacterial activity against Pseudomonas aeruginosa ATCC 27853 at 50 ug after 24 hrs by well diffusion method; format: functional; details: for zone of inhibition at 50 µg/disc: ATCC 27853, 24 h, read-out: IZ

IC50 [1] | IC50 [2] | IC50 [3] | SMILES | Activity [4] | Activity [5] | Activity [6] | Activity [7] | Activity [8] | Activity [9] | zone of inhibition at 50 µg/disc [9]
74.38 µg/mL (≈ 164 µM) | 89.05 µg/mL (≈ 197 µM) | 216.32 µg/mL (≈ 478 µM) | CN(C)c1ccc(/C=C/c2cc(/C=C/c3ccc(N(C)C)cc3)n(-c3ccc(F)cc3)n2)cc1 | Active | Active | Active | Active | – | – | –
88.05 µg/mL (≈ 190 µM) | 79.59 µg/mL (≈ 171 µM) | 751.12 µg/mL (≈ 1620 µM) | COc1ccc(-n2nc(/C=C/c3ccc(N(C)C)cc3)cc2/C=C/c2ccc(N(C)C)cc2)cc1 | – | Active | – | – | inactive | – | –
75.37 µg/mL (≈ 152 µM) | 44.95 µg/mL (≈ 90.5 µM) | 106.16 µg/mL (≈ 214 µM) | COc1cc(C=C(C(=O)/C=C/c2ccc(N(C)C)cc2)C(=O)/C=C/c2ccc(N(C)C)cc2)ccc1O | Active | Active | – | – | – | Active | –
52.51 µg/mL (≈ 143 µM) | 52.24 µg/mL (≈ 142 µM) | 129.85 µg/mL (≈ 352 µM) | COc1cc(/C=C/C(=O)CC(=O)/C=C/c2ccc(O)c(OC)c2)ccc1O [CURCUMIN] | Active | Active | Active | Active | Active | – | 11 mm
– | – | 52.95 µg/mL | O=C([O-])Cc1ccccc1Nc1c(Cl)cccc1Cl.[Na+] [DICLOFENAC SODIUM] | – | – | – | – | – | – | –
78.52 µg/mL (≈ 217 µM) | 74.56 µg/mL (≈ 206 µM) | 180.38 µg/mL (≈ 498 µM) | CN(C)c1ccc(/C=C/C(=O)/C=C(O)/C=C/c2ccc(N(C)C)cc2)cc1 | – | – | – | – | – | – | –
79.06 µg/mL (≈ 169 µM) | 52.13 µg/mL (≈ 111 µM) | 808.36 µg/mL (≈ 1730 µM) | CN(C)c1ccc(/C=C/C(=O)/C(CNc2ccccc2)=C(O)/C=C/c2ccc(N(C)C)cc2)cc1 | – | Active | Active | – | Active | – | –
48.16 µg/mL (≈ 99.2 µM) | 46.9 µg/mL (≈ 96.6 µM) | 226.71 µg/mL (≈ 467 µM) | CN(C)c1ccc(/C=C/C(=O)/C(CNc2ccc(F)cc2)=C(O)/C=C/c2ccc(N(C)C)cc2)cc1 | Active | Active | – | Active | inactive | – | 12 mm
46.05 µg/mL (≈ 128 µM) | 50.78 µg/mL (≈ 142 µM) | 51.79 µg/mL (≈ 144 µM) | CN(C)c1ccc(/C=C/c2cc(/C=C/c3ccc(N(C)C)cc3)[nH]n2)cc1 | – | Active | – | Active | inactive | Active | –
74.03 µg/mL (≈ 170 µM) | 72.42 µg/mL (≈ 167 µM) | 29.44 µg/mL (≈ 67.7 µM) | CN(C)c1ccc(/C=C/c2cc(/C=C/c3ccc(N(C)C)cc3)n(-c3ccccc3)n2)cc1 | Active | Active | Active | – | Active | – | –
76.28 µg/mL (≈ 153 µM) | 53.94 µg/mL (≈ 108 µM) | 81.36 µg/mL (≈ 163 µM) | COc1ccccc1NC/C(C(=O)/C=C/c1ccc(N(C)C)cc1)=C(O)\C=C\c1ccc(N(C)C)cc1 | – | Active | Active | – | – | – | –
65.53 µg/mL (≈ 372 µM) | 68.82 µg/mL (≈ 391 µM) | – | O=C1O[C@H]([C@@H](O)CO)C(O)=C1O [ASCORBIC ACID] | – | – | – | – | – | – | –
81.69 µg/mL (≈ 153 µM) | 74.6 µg/mL (≈ 139 µM) | 186.05 µg/mL (≈ 347 µM) | CN(C)c1ccc(/C=C/C(=O)/C(CNc2cccc(C(F)(F)F)c2)=C(O)/C=C/c2ccc(N(C)C)cc2)cc1 | – | inactive | – | – | inactive | – | –
